Experimental data as given in US11866460B2 (priority 2015, dated 2024).
pEC50: −log10 of the molar value. Read-outs that look alike come from different tables or passages of the source. Where a SMILES comes first, the peptide text is derived from it. Where no end group is shown, it is not given here.

What was measured:
CHIKV 181/25 [1] = assay: microbe, parasite or virus in culture; details: Chikungunya virus, Vero
DENV-3 H87 = details: for Therapeutic Index (CC50/EC50): -3 H87
CHIKV 181/25 [2] = details: for pEC50: 0 h
JEV 14-14-2 = details: for pEC50: 0 h
in vitro = details: African green monkey
DENV-1 PRS41393 = details: for Therapeutic Index (CC50/EC50): -1 PRS41393
DENV-4 H241 = details: for Therapeutic Index (CC50/EC50): -4 H241
[3] = system: panel of enveloped viruses (DENV, JEV, YFV, CHIKV and others)
S. aureus (ATCC 25923) = details: for MIC in PB: 10 mM potassium phosphate buffer, pH 7.2; for MIC in PBS: phosphate-buffered saline
Vero cells = details: African green monkey
VEEV TC-83 = details: 0 h
[4] = read-out: EC50 Values for the Indicated Virus

Compound	Therapeutic Index (CC50/EC50) (DENV-3 H87)	Therapeutic Index (CC50/EC50) (CHIKV 181/25 [2])	Therapeutic Index (CC50/EC50) (DENV-2 New Guinea C; -2 New Guinea C)	MHC (human erythrocyte cells) [µM]	Therapeutic Index (CC50/EC50) (JEV 14-14-2)	CC50 (in vitro) [µM]	Therapeutic Index (CC50/EC50) (DENV-1 PRS41393)	Therapeutic Index (CC50/EC50) (DENV-4 H241)	Therapeutic Index (CC50/EC50) (YFV 17D)	MIC in PB (S. aureus (ATCC 25923)) [µM]	MIC in PBS (S. aureus (ATCC 25923)) [µM]	also measured
O=c1cnn([C@@H]2O[C@H](CO)[C@@H](O)[C@H]2O)c(=O)[nH]1 [6-azauridine]												pEC50 (CHIKV 181/25 [1]): 6.54
CC[C@H](C)[C@H](NC(=O)[C@H](Cc1c[nH]c2ccccc12)NC(=O)[C@H](CC(=O)O)NC(=O)[C@H](Cc1c[nH]c2ccccc12)NC(=O)[C@@H](NC(=O)[C@H](CC(=O)O)NC(=O)[C@H](CCCNC(=N)N)NC(=O)[C@H](CC(C)C)NC(=O)[C@H](Cc1c[nH]c2ccccc12)NC(=O)[C@H](CO)NC(=O)CNC(=O)[C@@H](N)CO)C(C)C)C(=O)N[C@@H](CS)C(=O)N[C@H](C(=O)N[C@H](C(=O)N[C@@H](CC(C)C)C(=O)N[C@H](C(=O)N[C@@H](CC(=O)O)C(=O)N[C@@H](Cc1ccccc1)C(=O)N[C@@H](CCCCN)C(=O)N[C@H](C(=O)N[C@@H](Cc1c[nH]c2ccccc12)C(=O)N[C@@H](CC(C)C)C(=O)N[C@@H](CCC(N)=O)C(=O)N[C@@H](CO)C(=O)N[C@@H](CCCCN)C(=O)N[C@@H](CC(C)C)C(=O)O)[C@@H](C)O)[C@@H](C)O)C(C)C)[C@@H](C)O [AH, reference compound]	17.65	21.21	708.11	50	236.04	192	49.98	36.84	5.87			pEC50 (in vitro): 3.89
Nc1ccn(C[C@@H](CO)OCP(=O)(O)O)c(=O)n1 [Cidofovir]						> 375						
CC(C)C[C@H](NC(=O)[C@H](CCCCN)NC(=O)[C@H](CO)NC(=O)[C@H](CCC(N)=O)NC(=O)[C@H](CC(C)C)NC(=O)[C@H](Cc1c[nH]c2ccccc12)NC(=O)[C@@H](NC(=O)[C@H](Cc1c[nH]c2ccccc12)NC(=O)[C@@H](NC(=O)[C@H](CC(=O)O)NC(=O)[C@H](CCCNC(=N)N)NC(=O)[C@H](CC(C)C)NC(=O)[C@H](Cc1c[nH]c2ccccc12)NC(=O)[C@H](CO)NC(=O)CNC(=O)[C@H](CO)NC(=O)CCOCCOCCOCCOCCOCCOCCOCCOCCOCCOCCOCCOCCNC(=O)CCOCCOCCOCCOCCOCCOCCOCCOCCOCCOCCOCCOCCN)C(C)C)[C@@H](C)O)C(N)=O [TSGX1X] (HELM PEPTIDE1{[NCCOCCOCCOCCOCCOCCOCCOCCOCCOCCOCCOCCOCCC(=O)[*:2]].[O=C(CCOCCOCCOCCOCCOCCOCCOCCOCCOCCOCCOCCOCCN[*:1])[*:2]].S.G.S.W.L.R.D.V.W.T.W.L.Q.S.K.L.[am]}$$$$V2.0)												pEC50 (DENV-3 H87): 5.64; antiviral activities of pegylated peptides [3]: reduced; antiviral activity of pegylated peptides [3]: preserve strong antiviral activity; efficacy against infection [3]: effective; pEC50 (CHIKV 181/25 [2]): 4.56; pEC50 (DENV-2 New Guinea C): 5.41; pEC50 (Ebola virus (EBOV)): 4.87; pEC50 (Ebola virus (EBOV); [4]): 4.87; pEC50 (JEV 14-14-2): 5.90; pEC50 (Marburg virus (MARV)): 4.84; pEC50 (Marburg virus (MARV); [4]): 4.84; pEC50 (DENV-1 PRS41393): 5.30; pEC50 (DENV-4 H241): 5.45; pEC50 (YFV 17D): 4.65
CC(C)C[C@H](NC(=O)[C@H](CCCCN)NC(=O)[C@H](CO)NC(=O)[C@H](CCC(N)=O)NC(=O)[C@H](CC(C)C)NC(=O)[C@H](Cc1c[nH]c2ccccc12)NC(=O)[C@@H](NC(=O)[C@H](Cc1c[nH]c2ccccc12)NC(=O)[C@@H](NC(=O)[C@H](CC(=O)O)NC(=O)[C@H](CCCNC(=N)N)NC(=O)[C@H](CC(C)C)NC(=O)[C@H](Cc1c[nH]c2ccccc12)NC(=O)[C@H](CO)NC(=O)[C@H](CO)NC(=O)CNC(=O)CCOCCOCCOCCOCCOCCOCCOCCOCCOCCOCCOCCOCCNC(=O)CCOCCOCCOCCOCCOCCOCCOCCOCCOCCOCCOCCOCCN)C(C)C)[C@@H](C)O)C(N)=O [TSGX2X] (HELM PEPTIDE1{[NCCOCCOCCOCCOCCOCCOCCOCCOCCOCCOCCOCCOCCC(=O)[*:2]].[O=C(CCOCCOCCOCCOCCOCCOCCOCCOCCOCCOCCOCCOCCN[*:1])[*:2]].G.S.S.W.L.R.D.V.W.T.W.L.Q.S.K.L.[am]}$$$$V2.0)												antiviral activities of pegylated peptides [3]: reduced; antiviral activity of pegylated peptides [3]: preserve strong antiviral activity; efficacy against infection [3]: effective; pEC50 (Ebola virus (EBOV)): 4.52; pEC50 (Ebola virus (EBOV); [4]): 4.52; pEC50 (Marburg virus (MARV)): 4.35; pEC50 (Marburg virus (MARV); [4]): 4.35
AGSWLRDILTLLQSAL [TSG009]				1.5						1.5	1.5	
AGSWLRDIWTWLQSAL [TSG008]				1.5						1.5	1.5	
GSSWLRDILTALQSLL [TSG007]				1.5						1.5	1.5	
GSSWLRDIWTALQSWL [TSG006]	11.71	5.07	26.04	3	10.71	14.9	12.03	11.63	22.09	1.5	1.5	pEC50 (DENV-3 H87; -3 H87, 0 h): 5.79; pEC50 (DENV-1 PRS41393; -1 PRS41393, 0 h): 5.81; pEC50 (DENV-4 H241; -4 H241, 0 h): 5.68
GSSWLRDIWTKLQSWL [TSG005]				13						1.5	1.5	
GSSWLRDVWTKLQSWL [TSG004]	18.64	14.89	18.29	50	24.46	111	13.45	15.88	14.33	1.5	1.5	pEC50 (CHIKV 181/25 [2]): 5.02; pEC50 (DENV-2 New Guinea C; -2 New Guinea C, 0 h): 5.06; CC50 (Vero cells): 114 µM; pEC50 (DENV-1 PRS41393; -1 PRS41393, 0 h): 5.20; pEC50 (VEEV TC-83): < 4.30; pEC50 (DENV-4 H241; -4 H241, 0 h): 5.19
GSSWLRDVWTWLQSAL [TSG003]	22.33	17.72	22.33	50		24.5	11.46	20.23	18.05	1.5	1.5	CC50 (Vero cells): 38.6 µM; pEC50 (JEV 14-14-2): 4.79; pEC50 (DENV-1 PRS41393; -1 PRS41393, 0 h): 5.21; pEC50 (VEEV TC-83): < 4.90
GSSWLRDVWTWLQSKL [TSG002]	6.09	4.73	9.60	50	6.72		10.41	8.58	7.40	1.5	1.5	pEC50 (DENV-3 H87; -3 H87, 0 h): 5.29; pEC50 (CHIKV 181/25 [2]): 5.49; pEC50 (DENV-2 New Guinea C; -2 New Guinea C, 0 h): 5.56; CC50 (Vero cells): 16.1 µM; pEC50 (Ebola virus (EBOV)): 5.99; pEC50 (Marburg virus (MARV)): 6.04; pEC50 (VEEV TC-83): < 4.90
SGSWLRDVWTWLQSKL [TSG001 L-isomer]												CC50 (Vero cells): > 20 µM
SWLRDIWDWICEVLSDFK [C5A, reference compound]	15.02	9.38	85.26	13	61.68		44.60	22.13	99.97		>100	pEC50 (DENV-3 H87; -3 H87, 0 h): 5.41; pEC50 (in vitro): 4.54; pEC50 (DENV-4 H241; -4 H241, 0 h): 5.78
